Measurements as given in patent US20040248245A1, “Zinc activated ion channel” (priority 2003, published 2004).

molecular target: T1, human ZAC (zinc activated ion channel) (Homo sapiens, UniProt Q401N2); assay: Whole cell patch-clamp recording of currents from HEK cells transfected with human ZAC; format: cell-based; settings: not given
T1 construct: expressed in transfected cells; host or cells: HEK (human embryonic kidney) cells, transient calcium phosphate transfection, vector pcDNA1.1/amp, GFP co-transfected on a separate plasmid (pCDM8)
T1 sequence (Q401N2 26-412): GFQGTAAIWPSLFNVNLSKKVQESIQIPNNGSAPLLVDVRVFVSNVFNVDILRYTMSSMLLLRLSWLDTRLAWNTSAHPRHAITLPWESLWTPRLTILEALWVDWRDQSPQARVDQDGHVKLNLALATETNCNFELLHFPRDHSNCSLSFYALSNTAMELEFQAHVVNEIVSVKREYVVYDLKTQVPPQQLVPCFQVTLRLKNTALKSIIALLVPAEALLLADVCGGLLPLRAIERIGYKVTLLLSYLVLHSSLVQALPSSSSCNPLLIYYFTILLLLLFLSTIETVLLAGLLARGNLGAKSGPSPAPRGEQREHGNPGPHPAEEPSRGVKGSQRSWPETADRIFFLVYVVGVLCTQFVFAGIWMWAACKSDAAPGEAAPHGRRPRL
Protocol: To generate HEK expressing hZAC, HEK cells were grown in Dulbecco's modified Eagle's medium, supplemented with 10% calf serum, 100 IU/ml penicillin, and 100 μg/ml streptomycin. Following confluence, the cells were seeded into 35 mm diameter dishes and transfected with cDNAs encoding the human ZAC subunit (in pcDNA1.1/amp) and green fluorescent protein (GFP) (in pCDM8). Cells were transfected using calcium phosphate precipitation as known in the art. Cells were used 24-44 h after transfection.
The whole cell patch-clamp technique was used to record currents from HEK cells. The bath was perfused continuously (5 ml/min) with an extracellular solution containing (in mM); NaCl, 140; KCl, 4.7; MgCl2, 1.2; CaCl2, 2.5; glucose, 11; and HEPES, 10 (pH 7.4 with NaOH). The electrode solution contained (in mM); KCl, 140; MgCl2, 2.0; EGTA, 11; and HEPES, 10 (pH 7.4 with KOH). The intracellular solution used to characterize the cation permeability of ZAC channels contained (in mM); KCl, 70; N-methyl-D-glucamine, 70; MgCl2, 2.0; EGTA, 11; and HEPES, 10 (pH 7.4 with HCl). The intracellular solution used to determine the contribution of Cl^− to the ZAC currents contained (in mM); KCl, 70; K^+ gluconate, 70; MgCl2, 2.0; EGTA, 11; and HEPES, 10 (pH 7.4 with KOH). Junction potentials were nulled prior to each experiment. Inappropriate inappropriate compensation was ignored in graphs of current-voltage relationships, but equilibrium potential values were corrected. Cells were clamped at −60 mV unless otherwise stated. Drugs were applied either by pressure ejection from modified micropipettes or by bath perfusion as known in the art. Experiments were performed at 22-24° C.
Currents were amplied (Axopatch 200A, Axon Instruments), low pass-filtered at 1 kHz, and digitized (Digidata 1320, Axon Instruments, Foster City, Calif.) for acquisition onto the hard drive of a personal computer. Currents were averaged, superimposed, and measured using pCLAMP software (Axon Instruments). Zn^+2 concentration-response data were obtained by prolonged (2 s) pressue ejection of randomized agonist concentrations from low resistance pipettes as known in the art.
To compensate, 1 mM Zn^+2 was applied before each concentration of Zn^+2. The amplitudes of the Zn^+2 activated currents were subsequently normalized to the current elicited by the prior application of 1 mM Zn^+2.
Graphs of concentration-response relationships were fitted using a logistic function as known in the art. Current-voltage relationships were analyzed by averaging at least two currents recorded at each holding potential. Individual current-voltage relationships were plotted, and a linear fit to points either side of current reversal yielded the equilibrium potential. All data are expressed as the arithmetic mean±S.E., and statistical comparisons were made using the Student's t test.

| Compound | Effect of antagonists on ZAC (inhibition) | Activation of ZAC |
| --- | --- | --- |
| α-bungarotoxin | no effect |  |
| CNC[C@H](O)c1ccc(O)c(O)c1 [epinephrine] |  | did not activate |
| CN1CC[C@]23c4c5ccc(O)c4O[C@H]2[C@@H](O)C=C[C@H]3[C@H]1C5 [morphine] |  | did not activate |
| CC(C)c1cccc(C(C)C)c1O [propofol] |  | did not activate |

same assay, conditions: HEK cells expressing hZAC, whole cell patch-clamp

| Compound | Effect of antagonists on ZAC (inhibition) | Concentration required for activation of ZAC |
| --- | --- | --- |
| COc1cc2c3cc1Oc1cc(ccc1O)C[C@@H]1c4c(cc(OC)c(O)c4Oc4ccc(cc4)C[C@@H]3N(C)CC2)CC[N+]1(C)C [Tubocurarine] | inhibited |  |
| C[N+]1(C)CCc2cc3c(cc2[C@H]1[C@@H]1OC(=O)c2c1ccc1c2OCO1)OCO3.[I-] [bicuculline methiodide] | no effect |  |
| CNC1(C)C2CCC(C2)C1(C)C (stereo not shown) [mecamylamine] | no effect |  |
| Cc1nccn1CC1CCc2c(c3ccccc3n2C)C1=O (stereo not shown) [ondansetron] | no effect |  |
| [Zn+2] [Zn^+2, zinc] |  | > 30 µM |

same assay, conditions: HEK cells expressing hZAC, whole cell patch-clamp, clamped at −60 mV, 22-24° C.

| Compound | Activation of ZAC |
| --- | --- |
| NCC(=O)O [glycine] | did not activate |
| N[C@@H](CCC(=O)N[C@@H](CS)C(=O)NCC(=O)O)C(=O)O [glutathione] | did not activate |
| Nc1ncnc2c1ncn2[C@@H]1O[C@H](COP(=O)(O)OP(=O)(O)OP(=O)(O)O)[C@@H](O)[C@H]1O [ATP] | did not activate |
| somatostain | did not activate |
| NCCc1c[nH]cn1 [histamine] | did not activate |
| CC(=O)[C@H]1CC[C@H]2[C@@H]3CC[C@H]4C[C@H](O)CC[C@]4(C)[C@H]3CC[C@]12C [allopregnanolone] | did not activate |
| CNC1(c2ccccc2Cl)CCCCC1=O (stereo not shown) [ketamine] | did not activate |
| neuropeptide Y | did not activate |
| NCCCC(=O)O [GABA, γ-amino butyric acid] | did not activate |
| NCCc1ccc(O)c(O)c1 [dopamine] | did not activate |
| NCCc1c[nH]c2ccc(O)cc12 [5-HT, 5-hydroxytryptamine] | did not activate |
| [Zn+2] [Zn^+2, zinc] | activated |
| N[C@@H](CCC(=O)O)C(=O)O [glutamate] | did not activate |
| CC[C@H](C)[C@@H]1NC(=O)[C@H](Cc2ccc(O)cc2)NC(=O)[C@@H](N)CSSC[C@@H](C(=O)N2CCC[C@H]2C(=O)N[C@@H](CC(C)C)C(=O)NCC(N)=O)NC(=O)[C@H](CC(N)=O)NC(=O)[C@H](CCC(N)=O)NC1=O [oxytocin] | did not activate |
| galonin | did not activate |

same assay, conditions: HEK cells expressing hZAC, whole cell patch-clamp; mean±S.E.

| Compound | Equilibrium potential of Zn+2 activated currents |
| --- | --- |
| [Zn+2] [Zn^+2, zinc] | −5±1 mV |
